The values that follow come from ChEMBL document CHEMBL3217712, “Improved biodistribution, pharmacokinetics and photodynamic efficacy using a new photostable sulfonamide bacteriochlorin” (Medchemcomm, 2012).

Data set [1] in a line: n-Octanol-water partition coefficient, log P of the compound. In kind it is physicochemical.
The test system of another data set is S91. The experiment in a line: Photodynamic efficacy against mouse Cloudman S91 cells allografted in DBA mouse assessed as time of tumor growth delay at 2 mg/kg, iv followed by irradiated with 70 mW cm'-2 diode laser light for 25 mins. It counts as functional.

A word on the logP: it is a log measure of how a compound divides between an organic and an aqueous phase. Read a high logP as higher lipophilicity. `O=S(=O)(O)c1ccc(Cl)c(-c2c3nc(c(-c4cc(S(=O)(=O)O)ccc4Cl)c4ccc([nH]4)c(-c4cc(S(=O)(=O)O)ccc4Cl)c4nc(c(-c5cc(S(=O)(=O)O)ccc5Cl)c5ccc2[nH]5)CC4)CC3)c1` came in with a logP in data set [1] of -1.7. Besides, the Time in the data set on S91 amounted to 27 days.
